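Grown in 96-well plates, cells were treated for 48 hours with each compound at five concentrations. Insufficient inhibition: endpoint recorded as highest concentration tested. At the TGI there is no net growth.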
What was measured:
Experiment in all cases: NCI anticancer screen, dose series, 48 h
CCRF-CEM leukemia = tested on: CCRF-CEM leukemia
DMS 114 small cell lung = tested on: DMS 114 small cell lung
LXFL 529 NSCLC = tested on: LXFL 529 NSCLC
KM20L2 colon = tested on: KM20L2 colon
M19-MEL melanoma = tested on: M19-MEL melanoma
HCT-15 colon = tested on: HCT-15 colon
SF-268 CNS = tested on: SF-268 CNS
RXF 393 renal = tested on: RXF 393 renal
OVCAR-8 ovarian = tested on: OVCAR-8 ovarian
SK-OV-3 ovarian = tested on: SK-OV-3 ovarian
HCC-2998 colon = tested on: HCC-2998 colon
MDA-MB-231 breast = tested on: MDA-MB-231 breast

Compound | TGI (CCRF-CEM leukemia) [µM] | TGI (DMS 114 small cell lung) [µM] | TGI (LXFL 529 NSCLC) [µM] | TGI (KM20L2 colon) [µM] | TGI (M19-MEL melanoma) [µM] | TGI (HCT-15 colon) [µM] | TGI (SF-268 CNS) [µM] | TGI (RXF 393 renal) [µM] | TGI (OVCAR-8 ovarian) [µM] | TGI (SK-OV-3 ovarian) [µM] | TGI (HCC-2998 colon) [µM] | TGI (MDA-MB-231 breast) [µM]
Cn1c(=O)c(NC(=O)C(Cl)(Cl)Cl)nc2ccccc21 | > 100 | > 100 | > 100 | > 100 | > 100 | > 100 | > 100 | > 100 | > 100 | > 100 | > 100 | –
ON(Cc1ccccc1)C(=S)c1ccccc1 | > 27 | 9.55 | > 100 | > 100 | > 100 | > 100 | > 100 | 85.3 | > 69.8 | > 100 | 98.1 | > 100
CCOc1ccc2c(c1)[n+]([O-])c(-c1ccc(Br)cc1)c(N)[n+]2[O-] | > 100 | > 100 | > 100 | > 100 | > 100 | > 100 | > 100 | – | > 100 | > 100 | > 100 | –
C[N+](C)(C)CC1CCC/C1=N/O (stereo not given) | 39.1 | 39 | > 100 | 49.4 | > 100 | 38.8 | > 100 | > 100 | 4.34 | > 100 | > 100 | –
C#CC[N+](C)(CC#C)CC#C | > 100 | > 100 | > 100 | > 100 | > 100 | > 100 | > 100 | > 100 | > 100 | > 100 | > 100 | –
COC(=O)C1=C(c2ccc(OC)c(OC)c2)OC(c2cc(OC)c(OC)c(OC)c2)C1 (stereo not given) | > 100 | > 100 | > 100 | > 100 | > 100 | – | > 100 | 66.9 | > 100 | 56.8 | > 100 | –
CN(C)c1nnnn1-c1c(N)n(C)c(=O)n(C)c1=O | > 100 | > 100 | > 100 | > 100 | > 100 | > 100 | > 100 | – | > 100 | > 100 | > 100 | –
CS(=O)(=O)NNS(=O)(=O)c1ccccc1 | > 100 | > 100 | > 100 | > 100 | > 100 | > 100 | > 100 | > 100 | > 100 | – | > 100 | –
CN=C(NC(=S)N(C)C)N(C)C | > 100 | > 100 | > 100 | > 100 | > 100 | > 100 | > 100 | > 100 | > 100 | > 100 | > 100 | –
O=[N+]([O-])c1ccc(C2CC(c3ccccc3Cl)=Nc3ccccc3S2=O)cc1 (stereo not given) | 4.37 | 4.36 | 3.54 | 7.04 | 6.89 | 5.3 | 30.5 | 4.05 | 11.7 | 52.9 | 6.85 | 5.29
N#CC1CCCCOCCOCCOCCOCCOCCCCCC1=O (stereo not given) | > 100 | > 100 | > 100 | > 100 | > 100 | > 100 | > 100 | > 100 | > 100 | > 100 | > 100 | –
Cc1cc(-c2ccccc2)nc(Nc2nc3ccccc3o2)n1 | > 100 | > 100 | > 100 | > 100 | > 100 | > 100 | > 100 | – | > 100 | > 100 | > 100 | –
O=[N+]([O-])c1ccc(Cl)c(C2CC(c3cccc4ccccc34)=Nc3ccccc3S2)c1 (stereo not given) | > 64.7 | 84.5 | 88.9 | > 100 | > 66.1 | > 100 | > 92.1 | 21.7 | 30.8 | > 100 | > 100 | –
Cc1ccc(NC(=O)C2C(=O)N(c3ccc(C)c(C)c3)C(=O)/C2=N\NC(N)=O)cc1C (stereo not given) | > 100 | > 100 | > 100 | > 100 | > 100 | > 100 | > 100 | > 100 | > 100 | > 100 | > 100 | –
Cc1cccc(C(C)C)c1N1C(=O)C(=O)C(c2nc3ccccc3o2)C(=O)C1=O | 63 | 75.8 | > 100 | > 100 | > 100 | > 100 | > 100 | > 100 | > 100 | > 100 | > 100 | –
O=C(CCC(=O)Nc1ccc(Cl)c(Cl)c1)CC(=O)c1ccc(F)cc1 | > 100 | > 100 | > 100 | > 100 | > 100 | – | > 100 | > 100 | > 100 | > 100 | > 100 | –
O=C(CSc1ncn[nH]1)C[P+](c1ccccc1)(c1ccccc1)c1ccccc1 | > 100 | > 100 | > 100 | > 100 | > 100 | > 100 | > 100 | > 100 | > 100 | > 100 | > 100 | –
O=C(CC1(O)C(=O)Nc2ccc(Br)cc21)c1ccc(Cl)cc1Cl (stereo not given) | 57.1 | 46.8 | > 100 | > 100 | 29.1 | > 100 | > 100 | > 100 | > 100 | > 100 | > 100 | –
CN(C)C(=Nc1nc(=[N+](C)C)ss1)N(C)C | > 100 | > 100 | > 100 | > 100 | > 100 | > 100 | > 100 | > 100 | > 100 | > 100 | > 100 | –
